Read-outs that look alike come from different tables or passages of the source.
Target: T1, thromboxane A2 receptors (TPα) of human platelets (Homo sapiens, UniProt P21731)
T1 construct: endogenous in cells; host or cells: human platelets
T1 sequence (P21731 1-343): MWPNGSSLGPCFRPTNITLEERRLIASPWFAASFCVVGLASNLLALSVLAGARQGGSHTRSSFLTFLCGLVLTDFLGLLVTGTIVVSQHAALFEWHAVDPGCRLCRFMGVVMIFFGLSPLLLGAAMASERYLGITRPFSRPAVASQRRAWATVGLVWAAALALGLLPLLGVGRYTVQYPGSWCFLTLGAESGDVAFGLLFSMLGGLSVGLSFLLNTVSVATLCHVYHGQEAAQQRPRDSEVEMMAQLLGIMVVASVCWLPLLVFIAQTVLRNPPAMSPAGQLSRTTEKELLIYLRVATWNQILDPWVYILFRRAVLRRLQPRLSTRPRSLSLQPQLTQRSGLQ
Assay: Binding test: displacement of [3H]SQ-29.548 from human platelet thromboxane A2 receptors
Settings: for inhibition at 1 µM: read-out: Affinity: percent of [3H]SQ-29.548 specifically substituted by the examined compound, compound 10^-6 M; for inhibition at 0.1 µM: read-out: Affinity: percent of [3H]SQ-29.548 specifically substituted by the examined compound, compound 10^-7 M
Description: To operate a first selection, the capacity of these compounds to displace in a specific way a tritium ligand, the [^3H]
Cozzi P., Giordani A., Menichincheri M., Pillan A., Pinciroli V., Rossi A., Tonani R., Volpi D., Tamburin M., Ferrario R., Fusar D., Salvati P.,—Agents combining thromboxane receptor antagonism with thromboxane synthase inhibition:[[[2-(1H-imidazol-1-yl)ethylidene]amino]oxy]alkanoic acids.—J. Med. Chem., 1994, 37, 3588-3604.

Row | Compound | Affinity: percent of [3H]SQ-29.548 specifically substituted by the examined compound, 10^-6M [%] | Affinity: percent of [3H]SQ-29.548 specifically substituted by the examined compound, 10^-7M [%] | other results
1 | CC(C)NC(=O)NS(=O)(=O)c1cc([N+](=O)[O-])ccc1NC(C)c1ccccc1 (racemic) [Compound 75] | 93.1 |  | 
2 | CC(Nc1ccc([N+](=O)[O-])cc1S(=O)(=O)NC(=O)NC(C)(C)C)c1ccccc1 (racemic) [Compound 76] |  |  | IC50: 3.5 nM; inhibition at 1 µM: 97.6%; inhibition at 0.1 µM: 93.5%
3 | CC(C)NC(=O)NS(=O)(=O)c1cc([N+](=O)[O-])ccc1NC1CCCCCC1 [Compound 1] | 93.6 | 68.0 | 
4 | CC(C)NC(=O)NS(=O)(=O)c1cc([N+](=O)[O-])ccc1NC1CCCC1 [Compound 2] | 67.7 |  | 
5 | Cc1cccc(Nc2ccc([N+](=O)[O-])cc2S(=O)(=O)NC(=NC#N)NC(C)C)c1 [Compound 3] | 20.1 |  | 
6 | N#CN=C(NC1CCCCC1)NS(=O)(=O)c1cc([N+](=O)[O-])ccc1NC1CCCC1 [Compound 4] | 50.0 |  | 
7 | N#CN=C(NC1CCCCC1)NS(=O)(=O)c1cc([N+](=O)[O-])ccc1NC1CCCCC1 [Compound 5] | 72.1 |  | 
8 | Cc1cccc(Nc2ccc([N+](=O)[O-])cc2S(=O)(=O)NC(=NC#N)NC2CCCCC2)c1 [Compound 6] | 29.8 |  | 
9 | CC(C)NC(=NC#N)NS(=O)(=O)c1cc([N+](=O)[O-])ccc1NC1CCCCC1 [Compound 7] | 42.9 |  | 
10 | CC(C)NC(=NC#N)NS(=O)(=O)c1cc([N+](=O)[O-])ccc1NC1CCCCCC1 [Compound 8] | 33.0 |  | 
11 | CC(C)NC(=NC#N)NS(=O)(=O)c1cc([N+](=O)[O-])ccc1NC1CCCCCCC1 [Compound 9] | 15.4 |  | 
12 | Cc1cccc(Nc2ccc([N+](=O)[O-])cc2S(=O)(=O)NC(=C[N+](=O)[O-])NC2CCCCC2)c1 [Compound 10] | 57.7 |  | 
13 | Cc1cccc(Nc2ccc([N+](=O)[O-])cc2S(=O)(=O)NC(=S)NC(C)C)c1 [Compound 11] | 63.7 |  | 
14 | CC(C)NC(=S)NS(=O)(=O)c1cc([N+](=O)[O-])ccc1NC1CCCCCC1 [Compound 12] | 67.2 |  | 
15 | CC(C)NC(=O)NS(=O)(=O)c1cc([N+](=O)[O-])ccc1NC1CCCCC1 [Compound 13] | 97.7 | 60.3 | 
16 | CC(C)NC(=S)NS(=O)(=O)c1cc([N+](=O)[O-])ccc1NC1CCCCC1 [Compound 14] | 92.9 | 34.0 | 
17 | CC(C)NC(=S)NS(=O)(=O)c1cc([N+](=O)[O-])ccc1NC1CCCCCCC1 [Compound 15] | 81.0 | 16.6 | 
18 | O=[N+]([O-])c1ccc(NC2CCCCC2)c(S(=O)(=O)NC(=S)NC2CCCCC2)c1 [Compound 16] | 100 | 46.1 | 
19 | Cc1cccc(Nc2ccc([N+](=O)[O-])cc2S(=O)(=O)NC(=O)NC(C)(C)C)c1 [Compound 19] | 97.8 | 93.3 | IC50 (read-out: IC 50: concentration required for replacing 50% of [3H]SQ-29.548 bound to receptors TPα): 3.96 nM
20 | CCCNc1ccc([N+](=O)[O-])cc1S(=O)(=O)NC(=O)NC(C)C [Compound 20] | 1.6 |  | 
21 | CC(C)NC(=O)NS(=O)(=O)c1cc([N+](=O)[O-])ccc1NCc1ccccc1 [Compound 21] | 92.2 | 44.2 | 

Row | Compound | Affinity: percent of [3H]SQ-29.548 specifically substituted by the examined compound, 10^-6M [%] | Affinity: percent of [3H]SQ-29.548 specifically substituted by the examined compound, 10^-7M [%] | other results
22 | O=C(NC1CCCCC1)NS(=O)(=O)c1cc([N+](=O)[O-])ccc1NC1CCCCCCC1 [Compound 23] | 95.5 | 62.9 | 
23 | Cc1cccc(Nc2ccc(C#N)cc2S(=O)(=O)NC(=O)NC(C)C)c1 [Compound 24] | 73.7 |  | 
24 | CC(C)(C)NC(=O)NS(=O)(=O)c1cc([N+](=O)[O-])ccc1NC1CCCCCCC1 [Compound 26] |  |  | IC50: 16.9 nM; inhibition at 1 µM: 94.3%; inhibition at 0.1 µM: 93.3%
25 | CCNC(=O)NS(=O)(=O)c1cc([N+](=O)[O-])ccc1NC1CCCCC1 [Compound 27] | 79.6 |  | 
26 | CCNC(=O)NS(=O)(=O)c1cc([N+](=O)[O-])ccc1NC1CCCCCC1 [Compound 28] | 81.9 | 39.6 | 
27 | Cc1ccccc1Nc1ccc([N+](=O)[O-])cc1S(=O)(=O)NC(=O)NC(C)C [Compound 30] | 95.1 | 80.8 | 
28 | C=CCNC(=O)NS(=O)(=O)c1cc([N+](=O)[O-])ccc1Nc1ccccc1 [Compound 31] | 80.5 | 42.2 | 
29 | C=CCNC(=O)NS(=O)(=O)c1cc([N+](=O)[O-])ccc1NC1CCCCC1 [Compound 32] | 86.7 | 46.0 | 
30 | C=CCNC(=O)NS(=O)(=O)c1cc([N+](=O)[O-])ccc1NC1CCCCCC1 [Compound 33] | 86.6 | 52.4 | 
31 | C=CCNC(=O)NS(=O)(=O)c1cc([N+](=O)[O-])ccc1NC1CCCCCCC1 [Compound 34] | 77.3 |  | 
32 | CCCNc1ccc([N+](=O)[O-])cc1S(=O)(=O)NC(=S)NC(C)C [Compound 35] | 45.0 |  | 
33 | CC(C)NC(=S)NS(=O)(=O)c1cc([N+](=O)[O-])ccc1NCc1ccccc1 [Compound 36] | 75.6 |  | 
34 | CC(C)NC(=S)NS(=O)(=O)c1cc([N+](=O)[O-])ccc1NC1CCCC1 [Compound 37] | 72.3 |  | 
35 | CC(C)NC(=S)NS(=O)(=O)c1cc([N+](=O)[O-])ccc1NC1CCCCC1 [Compound 38] | 77.2 |  | 
36 | CCNC(=S)NS(=O)(=O)c1cc([N+](=O)[O-])ccc1NC1CCCCCC1 [Compound 39] | 74.5 |  | 
37 | O=[N+]([O-])c1ccc(NC2CCCCCCC2)c(S(=O)(=O)NC(=S)NC2CCCCC2)c1 [Compound 41] | 75.9 |  | 
38 | O=[N+]([O-])c1ccc(NC2CCCCC2)c(S(=O)(=O)NC(=S)NCc2ccco2)c1 [Compound 42] | 92.3 | 50.5 | 
39 | CC(C)NC(=O)NS(=O)(=O)c1cc(C#N)ccc1NC1CCCCC1 [Compound 43] | 50.0 |  | 
40 | CCNC(=O)NS(=O)(=O)c1cc([N+](=O)[O-])ccc1NC1CCCCCCC1 [Compound 44] | 80.2 | 51.3 | 
41 | CCOC(=O)NS(=O)(=O)c1cc([N+](=O)[O-])ccc1NC1CCCC1 [Compound 45] | 79.9 | 50.4 | 
42 | CC(C)NC(=O)NS(=O)(=O)c1cc([N+](=O)[O-])ccc1NC1CCCCCCCCCCC1 [Compound 48] | 51.9 |  | 
